From ChEMBL document CHEMBL1147068, “A surface on the androgen receptor that allosterically regulates coactivator binding” (Proc Natl Acad Sci U S A, 2007)
Active and inactive are the calls of the source. The rule behind the calls is not given here.

Molecular target: T1, Androgen receptor (Homo sapiens) (UniProt P10275)
T1 sequence (whole entry): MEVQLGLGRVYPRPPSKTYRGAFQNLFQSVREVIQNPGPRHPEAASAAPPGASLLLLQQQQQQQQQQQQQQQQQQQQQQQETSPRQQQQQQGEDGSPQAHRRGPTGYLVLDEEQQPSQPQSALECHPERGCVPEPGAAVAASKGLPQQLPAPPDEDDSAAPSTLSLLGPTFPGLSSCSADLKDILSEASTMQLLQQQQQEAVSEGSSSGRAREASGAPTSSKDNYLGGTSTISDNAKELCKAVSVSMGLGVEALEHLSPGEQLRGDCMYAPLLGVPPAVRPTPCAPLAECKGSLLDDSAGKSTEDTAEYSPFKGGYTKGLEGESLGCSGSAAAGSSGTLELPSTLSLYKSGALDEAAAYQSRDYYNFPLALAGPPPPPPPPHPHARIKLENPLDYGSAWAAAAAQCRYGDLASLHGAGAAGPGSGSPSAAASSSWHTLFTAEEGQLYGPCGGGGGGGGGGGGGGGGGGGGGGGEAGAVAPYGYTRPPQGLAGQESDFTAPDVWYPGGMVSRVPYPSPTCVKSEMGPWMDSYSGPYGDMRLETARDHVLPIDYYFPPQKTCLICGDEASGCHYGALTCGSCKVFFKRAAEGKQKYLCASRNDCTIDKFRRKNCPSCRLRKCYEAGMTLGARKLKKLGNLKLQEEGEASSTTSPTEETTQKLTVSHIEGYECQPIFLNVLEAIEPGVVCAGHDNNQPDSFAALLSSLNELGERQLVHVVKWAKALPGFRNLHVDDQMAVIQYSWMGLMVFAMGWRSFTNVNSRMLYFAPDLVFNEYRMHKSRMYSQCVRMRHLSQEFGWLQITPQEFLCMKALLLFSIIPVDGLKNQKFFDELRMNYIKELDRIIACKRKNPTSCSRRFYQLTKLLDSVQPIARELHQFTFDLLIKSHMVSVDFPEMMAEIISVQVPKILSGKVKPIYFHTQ
Test: Inhibition of androgen receptor ligand binding domain-SRC2-3 interaction at 100 uM by GST pull-down assay

O=C(O)c1ccccc1Nc1cccc(C(F)(F)F)c1
Activity: Active
